Reference: PubChem BioAssay (NCI)
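A five-concentration, 48-hour dose response in 96-well plates underlies each endpoint, interpolated linearly between surrounding concentrations. GI50 = concentration required for 50% inhibition of growth. TGI marks complete inhibition of growth.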

Columns and labels:
Assay in all cases: NCI anticancer screen, dose series, 48 h
[1] = tested on: U251 CNS
[2] = tested on: UACC-257 melanoma
[3] = tested on: TK-10 renal
[4] = tested on: SNB-75 CNS
[5] = tested on: HT29 colon
[6] = tested on: SNB-19 CNS
[7] = tested on: 786-0 renal
[8] = tested on: SW-620 colon
[9] = tested on: MCF7 breast
[10] = tested on: OVCAR-8 ovarian
[11] = tested on: SK-MEL-2 melanoma
[12] = tested on: UACC-62 melanoma
[13] = tested on: T-47D breast
[14] = tested on: UO-31 renal
[15] = tested on: PC-3 prostate
[16] = tested on: HL-60(TB) leukemia
[17] = tested on: NCI-H460 lung
[18] = tested on: LOX IMVI melanoma
[19] = tested on: NCI-H522 lung
[20] = tested on: MDA-MB-435
[21] = tested on: HCT-15 colon
[22] = tested on: RXF 393 renal
[23] = tested on: EKVX NSCLC
[24] = tested on: NCI-H23 lung
[25] = tested on: HS 578T breast
[26] = tested on: SK-MEL-5 melanoma
[27] = tested on: NCI-H226 lung
[28] = tested on: ACHN renal
[29] = tested on: A498 renal
[30] = tested on: NCI/ADR-RES ovarian
[31] = tested on: HOP-92 NSCLC
[32] = tested on: OVCAR-3 ovarian
[33] = tested on: SF-539 CNS
[34] = tested on: A549 NSCLC
[35] = tested on: COLO 205 colon
[36] = tested on: OVCAR-5 ovarian
[37] = tested on: KM12 colon
[38] = tested on: HOP-62 NSCLC
[39] = tested on: RPMI-8226 leukemia
[40] = tested on: SF-295 CNS
[41] = tested on: MDA-MB-231 breast
[42] = tested on: HCC-2998 colon
[43] = tested on: SK-OV-3 ovarian
[44] = tested on: M14 melanoma
[45] = tested on: CAKI-1 renal
[46] = tested on: BT-549 breast
[47] = tested on: K-562 leukemia
[48] = tested on: CCRF-CEM leukemia
[49] = tested on: MOLT-4 leukemia
[50] = tested on: SF-268 CNS
[51] = tested on: HCT-116 colon
[52] = tested on: DU-145 prostate
[53] = tested on: IGROV1 ovarian
[54] = tested on: SK-MEL-28 melanoma
[55] = tested on: SN12C renal
[56] = tested on: SR leukemia

Q: `CC(=O)OC1Oc2ccc(C)cc2-c2oc(=O)c(-c3cc4ccccc4oc3=O)cc21` (configuration not stated) was tested. Which GI50 [1] did it give?
A: 2.67 µM

Q: What about the TGI [1] of the same compound?
A: 26.8 µM

Q: What about the GI50 [2] of the same compound?
A: 8.52 µM

Q: And the TGI [2]?
A: 27.4 µM

Q: And the GI50 [3]?
A: 1.47 µM

Q: What about the TGI [3] of the same compound?
A: 7.93 µM

Q: And the GI50 [4]?
A: 2.88 µM

Q: What about the TGI [4] of the same compound?
A: 14.4 µM

Q: And the GI50 [5]?
A: 2.08 µM

Q: And the TGI [5]?
A: 34 µM

Q: And the GI50 [6]?
A: 3.82 µM

Q: And the TGI [6]?
A: 25.5 µM

Q: What about the GI50 [7] of the same compound?
A: 1.92 µM

Q: What about the TGI [7] of the same compound?
A: 7.74 µM

Q: And the GI50 [8]?
A: 6.05 µM

Q: And the TGI [8]?
A: 29.9 µM

Q: And the GI50 [9]?
A: 1.98 µM

Q: What about the TGI [9] of the same compound?
A: 7.01 µM

Q: What about the GI50 [10] of the same compound?
A: 3.8 µM

Q: And the TGI [10]?
A: 8.16 µM

Q: What about the GI50 [11] of the same compound?
A: 8.14 µM

Q: What about the TGI [11] of the same compound?
A: 40.7 µM

Q: What about the GI50 [12] of the same compound?
A: 2.57 µM

Q: What about the TGI [12] of the same compound?
A: 9.19 µM

Q: And the GI50 [13]?
A: 1.5 µM

Q: What about the TGI [13] of the same compound?
A: 6.08 µM

Q: And the GI50 [14]?
A: 7.9 µM

Q: And the TGI [14]?
A: 29.8 µM

Q: What about the GI50 [15] of the same compound?
A: 2.13 µM

Q: And the TGI [15]?
A: 8.54 µM

Q: What about the GI50 [16] of the same compound?
A: 0.822 µM

Q: What about the TGI [16] of the same compound?
A: 3.08 µM

Q: And the GI50 [17]?
A: 2.64 µM

Q: What about the TGI [17] of the same compound?
A: 17.8 µM

Q: What about the GI50 [18] of the same compound?
A: 1.2 µM

Q: And the TGI [18]?
A: 3.71 µM

Q: And the GI50 [19]?
A: 8.96 µM

Q: What about the TGI [19] of the same compound?
A: 34.6 µM

Q: And the GI50 [20]?
A: 0.985 µM

Q: And the TGI [20]?
A: 2.7 µM

Q: What about the GI50 [21] of the same compound?
A: 1.87 µM

Q: What about the TGI [21] of the same compound?
A: 11.6 µM

Q: What about the GI50 [22] of the same compound?
A: 3.01 µM

Q: What about the TGI [22] of the same compound?
A: 14.3 µM

Q: What about the GI50 [23] of the same compound?
A: 6.02 µM

Q: What about the TGI [23] of the same compound?
A: 23.8 µM

Q: What about the GI50 [24] of the same compound?
A: 2.82 µM

Q: What about the TGI [24] of the same compound?
A: 12 µM

Q: What about the GI50 [25] of the same compound?
A: 0.142 µM

Q: And the TGI [25]?
A: 8.09 µM

Q: And the GI50 [26]?
A: 2.67 µM

Q: And the TGI [26]?
A: 11.6 µM

Q: And the GI50 [27]?
A: 4.61 µM

Q: What about the TGI [27] of the same compound?
A: 16.5 µM

Q: And the GI50 [28]?
A: 3.06 µM

Q: And the TGI [28]?
A: 11.4 µM

Q: What about the GI50 [29] of the same compound?
A: 0.612 µM

Q: And the TGI [29]?
A: 4.07 µM

Q: And the GI50 [30]?
A: 2.54 µM

Q: What about the TGI [30] of the same compound?
A: 18.1 µM

Q: And the GI50 [31]?
A: 1.12 µM

Q: What about the TGI [31] of the same compound?
A: 3.61 µM

Q: And the GI50 [32]?
A: 1.19 µM

Q: What about the TGI [32] of the same compound?
A: 8.15 µM

Q: And the GI50 [33]?
A: 2.07 µM

Q: What about the TGI [33] of the same compound?
A: 6.21 µM

Q: And the GI50 [34]?
A: 4.55 µM

Q: What about the TGI [34] of the same compound?
A: 20.8 µM

Q: And the GI50 [35]?
A: 2.77 µM

Q: What about the TGI [35] of the same compound?
A: 15.7 µM

Q: And the GI50 [36]?
A: 3.38 µM

Q: And the TGI [36]?
A: 21 µM

Q: What about the GI50 [37] of the same compound?
A: 1.43 µM

Q: What about the TGI [37] of the same compound?
A: 5.94 µM

Q: And the GI50 [38]?
A: 3.77 µM

Q: What about the TGI [38] of the same compound?
A: 12.8 µM

Q: And the GI50 [39]?
A: 0.943 µM

Q: What about the TGI [39] of the same compound?
A: 2.41 µM

Q: And the GI50 [40]?
A: 2.13 µM

Q: And the TGI [40]?
A: 13 µM

Q: And the GI50 [41]?
A: 1.83 µM

Q: And the TGI [41]?
A: 5.67 µM

Q: And the GI50 [42]?
A: 2.43 µM

Q: And the TGI [42]?
A: 9.33 µM

Q: And the GI50 [43]?
A: 1.8 µM

Q: And the TGI [43]?
A: 8.57 µM

Q: And the GI50 [44]?
A: 1.2 µM

Q: What about the TGI [44] of the same compound?
A: 2.78 µM

Q: And the GI50 [45]?
A: 2.56 µM

Q: What about the TGI [45] of the same compound?
A: 7.69 µM

Q: And the GI50 [46]?
A: 3.03 µM

Q: And the TGI [46]?
A: 8.86 µM

Q: What about the GI50 [47] of the same compound?
A: 2.1 µM

Q: And the TGI [47]?
A: 14.1 µM

Q: What about the GI50 [48] of the same compound?
A: 1.38 µM

Q: What about the TGI [48] of the same compound?
A: 5.42 µM

Q: And the GI50 [49]?
A: 1.8 µM

Q: And the TGI [49]?
A: 3.99 µM

Q: And the GI50 [50]?
A: 3.27 µM

Q: And the TGI [50]?
A: 12.2 µM

Q: What about the GI50 [51] of the same compound?
A: 2.08 µM

Q: And the TGI [51]?
A: 8.62 µM

Q: And the GI50 [52]?
A: 1.92 µM

Q: What about the TGI [52] of the same compound?
A: 8.1 µM

Q: And the GI50 [53]?
A: 4 µM

Q: And the TGI [53]?
A: 37.7 µM

Q: What about the GI50 [54] of the same compound?
A: 5.84 µM

Q: What about the TGI [54] of the same compound?
A: 27.1 µM

Q: What about the GI50 [55] of the same compound?
A: 2.77 µM

Q: And the TGI [55]?
A: 9.89 µM

Q: And the GI50 [56]?
A: 0.571 µM

Q: What about the TGI [56] of the same compound?
A: 2.04 µM
